The record followed here is paper PMC6445168, “Design, synthesis and antimalarial activity of novel bis{N-[(pyrrolo[1,2-a]quinoxalin-4-yl)benzyl]-3-aminopropyl}amine derivatives” (Journal of Enzyme Inhibition and Medicinal Chemistry, 2017).

Counter-ions that a name gives are not always drawn. Like-named read-outs stand apart in the source and are kept apart here. Bounds are passed on as bounds.

Data set [1] has as its system P. falciparum CQ-sensitive strain 3D7. The data set is described as follows: In vitro antiplasmodial activity, SYBR Green I fluorescence-based method, 3D7 strain. In kind it is cell-based, Plasmodium falciparum. The conditions noted are these: for IC50: chloroquine-sensitive strain 3D7, 48 h incubation, read-out: P. falciparum strains IC50 values, 3D7; for Selectivity Index HepG2/3D7: ratio CC50 HepG2 / IC50 3D7. The protocol:
(§1) The in vitro antiplasmodial activities were tested over concentrations ranging from 39 nM to 40 μM against culture-adapted Plasmodium falciparum reference strains 3D7 and W2. […] The parasites were cultivated in RPMI medium (Sigma-Aldrich, Lyon, France) supplemented with 0.5% Albumax I (Life Technologies corporation, Paisley, United Kingdom), hypoxanthine (Sigma-Aldrich), gentamicin (Sigma-Aldrich), and human erythrocytes and were incubated at 37 °C in a candle jar, as described previously. The P. falciparum drug susceptibility test was carried out in 96-well flat bottom sterile plates under a final volume of 250 μL. After a 48 h incubation with the drugs, quantities of DNA in treated and control cultures of parasites in human erythrocytes were compared according to the SYBR Green I (Sigma-Aldrich) fluorescence-based method[38]^,[39]. Briefly, after incubation, plates were frozen at -20 °C until use. They were then left to thaw for 2 h at room temperature and 100 μL of the homogenized culture were transferred to 96-well flat bottom sterile black plates (Nunc Inc) already containing 100 μL of the SYBR Green I lysis buffer (2xSYBR Green, 20 mM Tris base pH 7.5, 5 mM EDTA, 0.008% w/v saponin, 0.08% w/v Triton X-100). […] Plates were incubated for 1 h at room temperature and then read on a fluorescence plate reader (Tecan, Austria) using excitation and emission wavelengths of 485 and 535 nm, respectively.

Data set [2] has as its system L. donovani (MHOM/IN/00/DEVI) promastigotes. The data set can be described thus: In vitro antileishmanial activity on promastigotes, MTT assay. In kind it is cell-based. The conditions noted are these: Leishmania donovani, 72 h incubation, mean ± SD of three independent experiments. The protocol: L. donovani (MHOM/IN/00/DEVI) used in this study was provided by the CNR Leishmania (Montpellier, France). The effects of the tested compounds on the growth of L. donovani (MHOM/IN/00/DEVI)promastigotes were assessed by MTT assay[41] .Briefly, promastigotes in log-phase in Schneider′s medium supplemented with 20% fetal calf serum (FCS), 2 mM L-glutamine and antibiotics (100 U/mL penicillin and 100 μg/mL streptomycin), were incubated at an average density of 10^6 parasites/mL in sterile 96-well plates with various concentrations of compounds dissolved in DMSO (final concentration less than 0.5% v/v), in duplicate. Appropriate controls treated by DMSO and pentamidine or amphotericin B (reference drugs purchased from Sigma-Aldrich) were added to each set of experiments. After a 72 h incubation period at 27 °C, parasite metabolic activity was determined. Each plate-well was then microscope-examined for detecting possible precipitate formation. 20 μL of MTT 3–(4,5-dimethylthiazol-2-yl)-2,5-diphenyltetrazolium bromide) solution (5 mg/mL) were added to each well followed by incubation for another 4 h. The enzyme reaction was then stopped by addition of 100 μL of 50% isopropanol – 10% sodium dodecyl sulfate[42] .Plates were shaken vigorously (300 rpm) for 10 minutes and the absorbance measured in a plate reader at 570 nm in a BIO-TEK ELx808 Absorbance Microplate Reader. […] IC50 were calculated by non-linear regression analysis processed on doseresponse curves, using TableCurve 2D V5.0 software. IC50 values represent the mean value calculated from three independent experiments.

In data set [3] the test system is P. falciparum CQ-resistant strain W2. The data set is described as follows: In vitro antiplasmodial activity, SYBR Green I fluorescence-based method, W2 strain. It is filed as cell-based, Plasmodium falciparum. The conditions noted are these: for IC50: Plasmodium falciparum, chloroquine-resistant strain W2, 48 h incubation, read-out: P. falciparum strains IC50 values, W2; for Selectivity Index HepG2/W2: ratio CC50 HepG2 / IC50 W2. The procedure: as §1

Data set [4] in a line: Cytotoxicity evaluation, MTT assay. It is filed as cell-based, human. The following applies: human, HepG2 cells (hepatocarcinoma cell line, ATCC HB-8065); HepG2, 72 h incubation, mean ± SD of three independent experiments. The protocol:
These assays were performed toward the human HepG2 cell line (HepG2 CC50). […] These cells express many of the hepatocyte-specific metabolic enzymes, thus enabling the cytotoxicity of tested product metabolites to be evaluated. […] Duplicate assays were performed for each sample. Each plate-well was then microscope-examined for detecting possible precipitate formation before the medium was aspirated from the wells. 100 μL of MTT solution (0.5 mg/mL in medium without FCS) were then added to each well. […] After this time, the MTT solution was removed and DMSO (100 μL) was added to dissolve the resulting blue formazan crystals. Plates were shaken vigorously (300 rpm) for 5 minutes. The absorbance was measured at 570 nm with 630 nm as reference wavelength spectrophotometer using a BIO-TEK ELx808 Absorbance Microplate Reader. DMSO was used as blank and doxorubicin (Sigma Aldrich) as positive control. Cell viability was calculated as percentage of control (cells incubated without compound). The 50% cytotoxic concentration was determined from the dose-response curve by using the TableCurve 2D V5.0 software (Systat Software, San Jose, CA).

Setting [5] is: Plasmodium falciparum, 3D7, 48 h.

Regarding `c1ccc2c(c1)nc(-c1ccc(CNCCCNCCCNCc3ccc(-c4nc5ccccc5n5cccc45)cc3)cc1)c1cccn12` (as salt: ammonium) [1a, Bis{N-[4-(pyrrolo[1,2-a]quinoxalin-4-yl)benzyl]-3-aminopropyl}amine], the melting point is over 260 °C.
On to `CN(CCCNCc1ccc(-c2nc3ccccc3n3cccc23)cc1)CCCNCc1ccc(-c2nc3ccccc3n3cccc23)cc1` (as salt: ammonium) [1b, Bis{N-[4-(pyrrolo[1,2-a]quinoxalin-4-yl)benzyl]-3-aminopropyl}methylamine], for which the melting point is 245 to 248 °C.
Same read-out and setting: the value for `c1ccc2c(c1)nc(-c1ccc(CNCCCN3CCN(CCCNCc4ccc(-c5nc6ccccc6n6cccc56)cc4)CC3)cc1)c1cccn12` (as salt: ammonium) [1c, Bis{N-[4-(pyrrolo[1,2-a]quinoxalin-4-yl)benzyl]-3-aminopropyl}piperazine] was over 260 °C.
On to `COc1ccc2nc(-c3ccc(CNCCCN(C)CCCNCc4ccc(-c5nc6ccc(OC)cc6n6cccc56)cc4)cc3)c3cccn3c2c1` (as salt: ammonium) [1f, Bis{N-[4–(8-methoxypyrrolo[1,2-a]quinoxalin-4-yl)benzyl]-3-aminopropyl}methylamine], for which the melting point fell in the range of 240 to 242 °C.
Take `COc1ccc2nc(-c3cccc(CNCCCN(C)CCCNCc4cccc(-c5nc6ccc(OC)cc6n6cccc56)c4)c3)c3cccn3c2c1` [1o, Bis{N-[3–(8-methoxypyrrolo[1,2-a]quinoxalin-4-yl)benzyl]-3-aminopropyl}methylamine]: the half-inhibitory concentration (IC50) amounted to 180 ± 20 nM in data set [1] (setting [5]), 3510 ± 100 nM in data set [2] and 206 ± 30 nM in data set [3]. For the same molecule, the “Selectivity Index HepG2/3D7” value in data set [1] is recorded as 8.33. Besides, in data set [3], the “Selectivity Index HepG2/W2” value is on record as 7.28. For the same molecule, the midpoint of cytotoxicity in data set [4], the CC50 at 72 h, lay at 1500 ± 900 nM.
As for `COc1ccc2nc(-c3cccc(CNCCCN4CCN(CCCNCc5cccc(-c6nc7ccc(OC)cc7n7cccc67)c5)CC4)c3)c3cccn3c2c1` [1p, Bis{N-[3–(8-methoxypyrrolo[1,2-a]quinoxalin-4-yl)benzyl]-3-aminopropyl}piperazine], the IC50 is 40 ± 4 nM in data set [1] (setting [5]), 3390 ± 400 nM in data set [2] and 170 ± 30 nM in data set [3]. Besides, the “Selectivity Index HepG2/3D7” value in data set [1] was 39.25. For the same molecule, the “Selectivity Index HepG2/W2” value in data set [3] was determined as 9.23. It took 1570 ± 800 nM to reach half-maximal cytotoxicity in data set [4] (CC50 at 72 h).
Take `COc1ccc2c(c1)nc(-c1ccc(CNCCCN(CCCNCc3ccc(-c4nc5cc(OC)ccc5n5cccc45)cc3)CCCNCc3ccc(-c4nc5cc(OC)ccc5n5cccc45)cc3)cc1)c1cccn12` [1s, Tris{N-[4–(7-methoxypyrrolo[1,2-a]quinoxalin-4-yl)benzyl]-3-aminopropyl}amine]: the figures for the IC50 in data set [1] (setting [5]), in data set [2] and in data set [3] were 200 ± 40 nM, at least 10000 nM and 290 ± 50 nM, respectively. Further, the “Selectivity Index HepG2/3D7” value in data set [1] is listed as 8.30. Further, the “Selectivity Index HepG2/W2” value in data set [3] came to 5.72. Also, in data set [4], the midpoint of cytotoxicity, the CC50 at 72 h, lay at 1660 ± 500 nM.
On to `COc1ccc2nc(-c3cccc(CNCCCN(CCCNCc4cccc(-c5nc6ccc(OC)cc6n6cccc56)c4)CCCNCc4cccc(-c5nc6ccc(OC)cc6n6cccc56)c4)c3)c3cccn3c2c1` [1t, Tris{N-[3–(8-methoxypyrrolo[1,2-a]quinoxalin-4-yl)benzyl]-3-aminopropyl}amine], for which the half-maximal inhibitory concentration (IC50) in data set [1] (setting [5]) was 240 ± 30 nM; in data set [2], at least 10000 nM; in data set [3] it was 190 ± 20 nM. The “Selectivity Index HepG2/3D7” value in data set [1] is recorded as 7.17. Also, the “Selectivity Index HepG2/W2” value in data set [3] turned out to be 9.05. Besides, the CC50 at 72 h in data set [4] came out at 1720 ± 600 nM.
In the case of `COc1ccc2nc(-c3cccc(CNCCOCCOCCOCCNCc4cccc(-c5nc6ccc(OC)cc6n6cccc56)c4)c3)c3cccn3c2c1` [1u, N,N′-[oxybis(2,1-ethanediyloxy-2,1-ethanediyl)]bis-3–(8-methoxypyrrolo[1,2-a]quinoxalin-4-yl)benzylamine], the 50% inhibitory concentration (IC50) in data set [1] (setting [5]) was about 80 nM; in data set [1], 76 ± 9 nM; in data set [2] it was at least 10000 nM; in data set [3], 250 ± 80 nM. Besides, the “Selectivity Index HepG2/3D7” value in data set [1] came out at 20.26. The “Selectivity Index HepG2/W2” value in data set [3] was 6.16. This molecule registered a CC50 at 72 h in data set [4] of 1540 ± 700 nM.
